Measurements taken from PubChem BioAssay AID248 (DTP/NCI, 2004).
Toxic doses and inconclusive results are not listed. Rule as the data show it: active = T/C of 150% or more; inactive = T/C below 125%.

Test system: L1210 leukemia ip in BDF1 mice, survival T/C
Experiment: NCI In Vivo Anticancer Drug Screen. Data for tumor model L1210 Leukemia (intraperitoneal) in B6D2F1 (BDF1) mice
Settings: higher = longer survival
In short: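 Mice bearing the transplanted tumor received compound or vehicle. Survival of the treated group was divided by that of the vehicle-treated control group to give the ratio.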

[1] = endpoint: mean survival time, dose: 100.0 mg/kg/injection, schedule: Q04DX002 (ip), vehicle: saline
[2] = endpoint: mean survival time, dose: 200.0 mg/kg/injection, schedule: Q04DX002 (ip), vehicle: saline
[3] = endpoint: mean survival time, dose: 100.0 mg/kg/injection, schedule: Q01DX001 (ip), vehicle: carboxymethylcellulose (CMC)
[4] = endpoint: mean survival time, dose: 200.0 mg/kg/injection, schedule: Q01DX001 (ip), vehicle: carboxymethylcellulose (CMC)
[5] = endpoint: mean survival time, dose: 400.0 mg/kg/injection, schedule: Q01DX001 (ip), vehicle: carboxymethylcellulose (CMC)
[6] = endpoint: mean survival time, dose: 100.0 mg/kg/injection, schedule: Q04DX003 (ip), vehicle: saline
[7] = endpoint: mean survival time, dose: 200.0 mg/kg/injection, schedule: Q04DX003 (ip), vehicle: saline
[8] = endpoint: mean survival time, dose: 400.0 mg/kg/injection, schedule: Q04DX003 (ip), vehicle: saline
[9] = endpoint: mean survival time, dose: 100.0 mg/kg/injection, schedule: Q01DX009 (ip), vehicle: saline with Tween-80
[10] = endpoint: mean survival time, dose: 100.0 mg/kg/injection, schedule: Q04DX003 (ip), vehicle: saline with Tween-80
[11] = endpoint: mean survival time, dose: 200.0 mg/kg/injection, schedule: Q04DX003 (ip), vehicle: saline with Tween-80
[12] = endpoint: mean survival time, dose: 100.0 mg/kg/injection, schedule: Q01DX009 (ip), vehicle: Klucel (hydroxypropylcellulose) (HPC)
[13] = endpoint: mean survival time, dose: 100.0 mg/kg/injection, schedule: Q04DX003 (ip), vehicle: Klucel (hydroxypropylcellulose) (HPC)
[14] = endpoint: mean survival time, dose: 200.0 mg/kg/injection, schedule: Q01DX009 (ip), vehicle: Klucel (hydroxypropylcellulose) (HPC)
[15] = endpoint: mean survival time, dose: 200.0 mg/kg/injection, schedule: Q04DX003 (ip), vehicle: Klucel (hydroxypropylcellulose) (HPC)
[16] = endpoint: mean survival time, dose: 400.0 mg/kg/injection, schedule: Q01DX009 (ip), vehicle: Klucel (hydroxypropylcellulose) (HPC)
[17] = endpoint: mean survival time, dose: 400.0 mg/kg/injection, schedule: Q04DX003 (ip), vehicle: Klucel (hydroxypropylcellulose) (HPC)
[18] = endpoint: mean survival time, dose: 100.0 mg/kg/injection, schedule: Q01DX001 (ip), vehicle: Klucel (hydroxypropylcellulose) (HPC)
[19] = endpoint: mean survival time, dose: 200.0 mg/kg/injection, schedule: Q01DX001 (ip), vehicle: Klucel (hydroxypropylcellulose) (HPC)
[20] = endpoint: mean survival time, dose: 200.0 mg/kg/injection, schedule: Q01DX009 (ip), vehicle: saline with Tween-80
[21] = endpoint: mean survival time, dose: 400.0 mg/kg/injection, schedule: Q01DX009 (ip), vehicle: saline with Tween-80
[22] = endpoint: mean survival time, dose: 400.0 mg/kg/injection, schedule: Q04DX003 (ip), vehicle: saline with Tween-80

Measured: T/C

CCCN(C(=O)CCl)c1ccccc1
inactive: endpoint: mean survival time, dose: 12.5 mg/kg/injection, schedule: Q04DX002 (ip), vehicle: Klucel (hydroxypropylcellulose) (HPC) 122 % of control | endpoint: mean survival time, dose: 25.0 mg/kg/injection, schedule: Q04DX002 (ip), vehicle: Klucel (hydroxypropylcellulose) (HPC) 94 % of control | endpoint: mean survival time, dose: 50.0 mg/kg/injection, schedule: Q04DX002 (ip), vehicle: Klucel (hydroxypropylcellulose) (HPC) 105 % of control

COc1ccc(CCN=C(N)CCl)cc1
inactive: [1] 95 % of control | [2] 106 % of control

O/N=C1\c2ccccc2-c2ccc(Cl)cc21
inactive: [3] 95 % of control | [4] 111 % of control | [5] 97 % of control

CCN(CC)c1ccc2[nH]c3c(C(N)=O)cc(=O)c(=O)c=3oc2c1
inactive: endpoint: median survival time, dose: 12.5 mg/kg/injection, schedule: Q01DX009 (ip), vehicle: saline with Tween-80 101 % of control | endpoint: median survival time, dose: 25.0 mg/kg/injection, schedule: Q01DX009 (ip), vehicle: saline with Tween-80 120 % of control | endpoint: median survival time, dose: 50.0 mg/kg/injection, schedule: Q01DX009 (ip), vehicle: saline with Tween-80 113 % of control | endpoint: median survival time, dose: 100.0 mg/kg/injection, schedule: Q01DX009 (ip), vehicle: saline with Tween-80 111 % of control | endpoint: median survival time, dose: 200.0 mg/kg/injection, schedule: Q01DX009 (ip), vehicle: saline with Tween-80 98 % of control

C[n+]1cn(CCCl)c2ccccc21
inactive: endpoint: mean survival time, dose: 10.0 mg/kg/injection, schedule: Q01DX Z (ip), vehicle: saline 93 % of control | endpoint: mean survival time, dose: 30.0 mg/kg/injection, schedule: Q01DX Z (ip), vehicle: saline 95 % of control

COc1ccc(C(=O)CCS/C(CCO)=C(\C)N(C=O)Cc2cnc(C)nc2N)cc1
inactive: [6] 101 % of control | [7] 101 % of control | [8] 101 % of control

CCS(=O)(=O)c1ccc(NC(=O)OC2CCCC2)cc1
inactive: endpoint: mean survival time, dose: 100.0 mg/kg/injection, schedule: Q01DX001 (ip), vehicle: other 100 % of control | endpoint: mean survival time, dose: 200.0 mg/kg/injection, schedule: Q01DX001 (ip), vehicle: other 96 % of control | endpoint: mean survival time, dose: 400.0 mg/kg/injection, schedule: Q01DX001 (ip), vehicle: other 89 % of control

c1cnc2sccc2c1
inactive: endpoint: mean survival time, dose: 50.0 mg/kg/injection, schedule: Q01DX009 (ip), vehicle: saline with Tween-80 113 % of control | [9] 95 % of control | [10] 102 % of control | [11] 103 % of control

CN1C(=O)N(C)C2(CCCC2)C1=O
inactive: [3] 107 % of control | [4] 104 % of control | [5] 104 % of control

CCCCCCCCC(=O)CCC
inactive: [12] 98 % of control | [13] 98 % of control | [14] 98 % of control | [15] 106 % of control | [16] 98 % of control | [17] 91 % of control

COc1ccc(OC)c(NC(=S)NC(=O)c2cccc([N+](=O)[O-])c2)c1
inactive: [12] 106 % of control | [13] 120 % of control | [14] 106 % of control | [15] 100 % of control | [16] 94 % of control | [17] 97 % of control

COn1c(/C=N/NC(N)=S)ccc1CN1C(=O)c2ccccc2C1=O
inactive: [18] 100 % of control | [19] 97 % of control | endpoint: mean survival time, dose: 400.0 mg/kg/injection, schedule: Q01DX001 (ip), vehicle: Klucel (hydroxypropylcellulose) (HPC) 93 % of control

CC(=O)OC1C(C2CSC(=O)O2)OC2OC(C)(C)OC21 (stereo not given)
inactive: endpoint: mean survival time, dose: 25.0 mg/kg/injection, schedule: Q04DX002 (ip), vehicle: saline 89 % of control | endpoint: mean survival time, dose: 50.0 mg/kg/injection, schedule: Q04DX002 (ip), vehicle: saline 103 % of control | [1] 92 % of control

O=C(OCC(O)C(O)C(O)C(O)COC(=O)c1ccccc1)c1ccccc1 (stereo not given) (tested in a mixture with another compound)
inactive: endpoint: mean survival time, dose: 100.0 mg/kg/injection, schedule: Q01DX001 (ip), vehicle: saline with Tween-80 103 % of control | endpoint: mean survival time, dose: 200.0 mg/kg/injection, schedule: Q01DX001 (ip), vehicle: saline with Tween-80 100 % of control | endpoint: mean survival time, dose: 400.0 mg/kg/injection, schedule: Q01DX001 (ip), vehicle: saline with Tween-80 90 % of control

[Co].[NH-]C(=O)c1ccccn1.[NH2-].[NH2-].[NH2-].[NH2-].[NH2-]
inactive: [1] 118 % of control | [2] 101 % of control | endpoint: mean survival time, dose: 400.0 mg/kg/injection, schedule: Q04DX002 (ip), vehicle: saline 108 % of control

CCCCCSC(=O)C(N)=O
inactive: [9] 102 % of control | [10] 100 % of control | [20] 100 % of control | [11] 109 % of control | [21] 96 % of control | [22] 92 % of control

C=CCC(B1OCCO1)B1OCCO1
inactive: endpoint: mean survival time, dose: 100.0 mg/kg/injection, schedule: Q04DX003 (ip), vehicle: saline sonified 106 % of control | endpoint: mean survival time, dose: 200.0 mg/kg/injection, schedule: Q04DX003 (ip), vehicle: saline sonified 95 % of control | endpoint: mean survival time, dose: 400.0 mg/kg/injection, schedule: Q04DX003 (ip), vehicle: saline sonified 110 % of control

O=C(O)c1ccc2c(=O)[nH][nH]c(=O)c2c1
inactive: endpoint: mean survival time, dose: 87.5 mg/kg/injection, schedule: Q01DX009 (ip), vehicle: Klucel (hydroxypropylcellulose) (HPC) 101 % of control | endpoint: mean survival time, dose: 175.0 mg/kg/injection, schedule: Q01DX009 (ip), vehicle: Klucel (hydroxypropylcellulose) (HPC) 96 % of control | endpoint: mean survival time, dose: 350.0 mg/kg/injection, schedule: Q01DX009 (ip), vehicle: Klucel (hydroxypropylcellulose) (HPC) 102 % of control

CC(CC(C)O)=NCCN=C(C)CC(C)O.[Ni] (stereo not given)
inactive: endpoint: mean survival time, dose: 6.25 mg/kg/injection, schedule: Q01DX009 (ip), vehicle: saline with Tween-80 108 % of control | endpoint: mean survival time, dose: 12.5 mg/kg/injection, schedule: Q01DX009 (ip), vehicle: saline with Tween-80 89 % of control

Cc1ccc(S(=O)(=O)Nc2ccc3nc(C)oc3c2)cc1
inactive: [9] 100 % of control | [10] 96 % of control | [20] 102 % of control | [11] 91 % of control | [21] 93 % of control | [22] 89 % of control

CCC(=O)c1ccc(N2CCCCC2)cc1
inactive: endpoint: mean survival time, dose: 100.0 mg/kg/injection, schedule: Q04DX002 (ip), vehicle: Klucel (hydroxypropylcellulose) (HPC) 103 % of control | endpoint: mean survival time, dose: 200.0 mg/kg/injection, schedule: Q04DX002 (ip), vehicle: Klucel (hydroxypropylcellulose) (HPC) 89 % of control

COc1ccccc1N=Nc1c(O)n(-c2ccc(C)cc2)c(=S)n(-c2ccc(C)cc2)c1=O
inactive: endpoint: mean survival time, dose: 50.0 mg/kg/injection, schedule: Q01DX001 (ip), vehicle: Klucel (hydroxypropylcellulose) (HPC) 86 % of control | [18] 89 % of control | [19] 102 % of control

CCN(CC)CC(=O)NCC(CCN1CCCC1)(CC(C)C)c1cccc2ccccc12 (stereo not given)
inactive: [1] 97 % of control | [2] 94 % of control

CC/C=N/Nc1ccnc(SCc2ccccc2)n1
inactive: endpoint: mean survival time, dose: 100.0 mg/kg/injection, schedule: Q04DX003 (ip), vehicle: gum acacia 103 % of control | endpoint: mean survival time, dose: 200.0 mg/kg/injection, schedule: Q04DX003 (ip), vehicle: gum acacia 97 % of control | endpoint: mean survival time, dose: 400.0 mg/kg/injection, schedule: Q04DX003 (ip), vehicle: gum acacia 94 % of control

CC(C)CC(NC(=O)CN)C(=O)O (stereo not given)
inactive: [6] 107 % of control | [7] 104 % of control | [8] 107 % of control
